Experimental data as given in publication PMC12191924, “A new naphthalene-based fluorogenic substrate for cytochrome P450 4A11” (Biochemical Journal, 2025).

Molecular target: T1, CYP2C8 (Homo sapiens, UniProt P10632)
T1 construct: purchased Gentest (Huntsville, AL), now a part of Discovery Life Sciences lot 81760; host or cells: insect cells, recombinant baculovirus
T1 sequence (P10632 1-490): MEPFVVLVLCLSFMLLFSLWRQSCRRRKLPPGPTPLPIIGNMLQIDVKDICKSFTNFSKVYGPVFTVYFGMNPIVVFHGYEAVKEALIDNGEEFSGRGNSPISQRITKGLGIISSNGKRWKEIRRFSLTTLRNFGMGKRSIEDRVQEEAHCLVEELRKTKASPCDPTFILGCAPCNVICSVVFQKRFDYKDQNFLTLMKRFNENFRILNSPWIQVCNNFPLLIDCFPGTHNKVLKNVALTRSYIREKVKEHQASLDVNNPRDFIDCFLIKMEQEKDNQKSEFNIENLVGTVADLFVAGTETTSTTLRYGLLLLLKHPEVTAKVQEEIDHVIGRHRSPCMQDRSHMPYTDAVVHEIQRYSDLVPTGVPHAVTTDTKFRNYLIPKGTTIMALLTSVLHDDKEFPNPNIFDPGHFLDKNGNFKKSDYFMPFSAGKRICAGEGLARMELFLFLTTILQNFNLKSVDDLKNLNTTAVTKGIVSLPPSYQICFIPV
Test: MONACRA demethylation by recombinant CYP2C8 in Supersomes, high-throughput fluorimetric assay
Type: biochemical
Experimental: Based on these observations, we developed a high-throughput automated assay applicable for studying SSPs of MONACRA metabolism by microsomal P450 enzymes. In this procedure, the incubation mixtures containing an NADPH-generating system and various substrate concentrations are placed in a multiwell plate and preincubated at 30°C in a thermostated shaker. The reaction is started by adding microsomal suspension to the final concentration of 0.3–1 mg/ml of microsomal protein or 0.02–0.1 µM of recombinant P450 enzymes in Supersomes. Following the incubation for 20 min at 30°C, the reaction is quenched by adding trichloroacetic acid (final concentration […]). After supplementing the wells with Na-glycine buffer (pH 10.4, final concentration 2.1 M), the plates are subjected to scanning the fluorescence spectra with excitation at 375 nm. This assay, which is described in detail in Materials and Methods, allows reliable detection of the concentrations of HONACRA as low as 0.1 µM.
We used the high-throughput activity assay described above to probe MONACRA metabolism by 16 human microsomal P450 enzymes, namely CYP1A2, CYP2A6, CYP2B6, CYP2C8, CYP2C9, CYP2C19, CYP2D6, CYP2E1, CYP2J2, CYP3A4, CYP3A5, CYP4A11, CYP4F2, CYP4F3A, CYP4F3B, and CYP4F12. […]

## COc1ccc2cc(C=CC(=O)O)ccc2c1 [MONACRA, 3-(6-methoxynaphthalen-2-yl)acrylic acid]
  rate of MONACRA metabolism by CYP2C8: negligibly small
